{
  "source": "patent US20220226321A1",
  "about": "“INHIBITOR OF MNK FOR THE TREATMENT OF NEUROPATHIC PAIN” (Board of Regents, The University of Texas System, priority 2019, published 2022)",
  "type_in_all_cases": "in vivo, mouse",
  "key": {"DRG": {"system": "DRG", "experiment": "measurement of protein synthesis by puromycin incorporation in DRG", "details": "single dose 10 mg/kg", "method": "Measurement of Protein Synthesis. Eight to 12-week-old wild-type and eiF4E^S209A mice were injected with puromycin (10 mg/kg via the intraperitoneal route, i.p.), and 1 hr later, DRGs were collected and processed for Western blotting using anti-puromycin monoclonal antibody (PMY-2A4, KeraFast). […] Protein synthesis was determined by measuring total lane signal from 250-15 KDa and subtracting unlabeled protein control. Signals were quantified using Image Lab (BioRad, Hercules, Calif.)."}, "SNI mice [1]": {"system": "SNI mice", "experiment": "attentional rule-shifting task after SNI", "details": "SNI mice vs SNI+vehicle, 10 mg/kg p.o. 7 days", "method": "(§1) Surgery. Spared nerve injury (SNI) was performed by the ligation and cutting of the tibial and peroneal branches of the left sciatic nerve trifurcation, leaving the sural branch intact as previously described (Decosterd and Woolf, 2000). Sham surgeries were performed the same way but without cutting the nerve. Mice were allowed to recover for 2 weeks following surgery.\nAttentional rule-shifting. Habituation: Mice were handled and gradually food restricted to 90% of their baseline weight over 3 weeks. Habituation took place over 3 days in which food rewards (Cheerio bits) were placed along each arm of a plusmaze. Mice were allowed to freely explore the maze and consume the food for 4 trials per day with a maximum time of 30 minutes per trial. When the mouse had consumed all of the food, the trial ended, and the mouse was returned to a holding cage while the maze was rebaited. The number of food pellets in each arm decreased from 4 to 2 to 1 on each consecutive day of habituation. Turn bias: On the fourth day the inventors assessed the animals' turn bias. Therefore, the plus maze was converted into a T-maze by blocking off one of the arms. Mice were placed in the stem arm (starting arm) and allowed to turn left or right to obtain a food pellet. After the mouse consumed the reward, it was returned to the stem arm and allowed to make another choice. […]"}, "SNI mice [2]": {"system": "SNI mice", "experiment": "mechanical withdrawal threshold (von Frey) after SNI", "details": "1 or 3 hours after treatment on days 1 and 5 of 7-day schedule, 10 mg/kg p.o.", "method": "as §1\nMechanical withdrawal threshold. Tactile sensitivity was measured by probing the left outer surface of the left hindpaw with a series of calibrated von Frey filaments. Mechanical withdrawal thresholds were assessed in all animals before (baseline) and after (2 weeks) surgery to confirm neuropathy. Withdrawal thresholds were calculated using the up-down method (Chaplan et al., 1994)."}, "SNI mice [3]": {"system": "SNI mice", "experiment": "conditioned place preference (CPP) after SNI", "details": "WT SNI, 10 mg/kg i.p., single conditioning day", "method": "Conditioned Place Preference. A previously published CPP protocol from the Walters laboratory protocol was used (Yang et al., 2014). The CPP box consisted of one black and one white chamber connected by a striped chamber. CPP was conducted in a dark room with a single low lumens light source (Maia 69E120-WH). The middle chamber of the CPP box was brightly illuminated to discourage mice from spending time in the middle chamber. […] On day 1 of testing (preconditioning), each mouse was permitted to explore the middle and black (but not white) chambers for 30 minutes. […] On the last day of CPP, each mouse was placed in the middle chamber with unrestricted access to all chambers and video-recorded for 10 min. Data are presented as the percent change in time spent in the drug-paired chambered compared to the control (vehicle or sham for each genotype or surgery). This was calculated by dividing each animal's time spent in the white box by the control average, multiplying by 100 and then subtracting 100.\nas §1"}, "mice": {"system": "mice", "experiment": "marble burying task", "details": "10 mg/kg p.o. daily for 7 days, vs WT naïve", "method": "Marble burying task. The marble burying task was used to assess obsessive compulsive disorder (OCD)-like behaviors as previously described^28. Nineteen marbles were placed on top of 5 cm of standard bedding in a clean cage. A mouse was placed into the cage for 30 minutes and then the number of buried marbles was counted."}},
  "note": "Entries after “also recorded” stand apart in the source; their conditions may differ.",
  "data": [
    {"smiles": "Cc1cc(Nc2cc(N)ncn2)c(=O)n2c1C(=O)NC21CCCCC1", "note": "[eFT508, Tomivosertib]", "values": [
      {"measurement": "general translation (puromycin incorporation in the DRG)", "setting": "DRG", "result": "not influenced"},
      {"measurement": "never-reinforced (NRE) and regressive (REG) type errors", "setting": "SNI mice [1]", "result": "significantly fewer"},
      {"measurement": "mechanical withdrawal thresholds", "setting": "SNI mice [2]", "result": "had no effect"},
      {"measurement": "more time in the drug-paired (white) chamber vs SNI animals that received vehicle", "setting": "SNI mice [3]", "result": "~40", "unit": "%"},
      {"measurement": "marble burying", "setting": "mice", "result": "no differences in marble burying; also recorded: performed similarly to naïve and vehicle-controls"}
    ]}
  ]
}
